# Test results published in US20040087498A1, “Modified factor VII” (Novo Nordisk Health Care AG, priority 1991, published 2004).
# Tests used:
# [1] = test system: tissue factor preparation (saline extract of baboon brain); assay: Clotting assay in normal baboon plasma with baboon brain tissue factor; format: biochemical
# Procedure: The samples were mixed and briefly incubated at 37° C. The samples were added to an Electra 800 Automatic Coagulation Timer (Medical Laboratories Automation, Pleasantville, N.Y.). […] A tissue factor preparation was made as a saline extract of baboon brain from freshly frozen brain tissue and characterized for its ability to initiate coagulation in baboon plasma. A concentration of tissue factor that gave a clotting time of about 40 seconds was selected.
# [2] = biological target: T1, cell-surface tissue factor on rat smooth muscle cells (Rattus norvegicus, UniProt P42533); assay: Dose-dependent cell-surface chromogenic activity on rat smooth muscle cells; format: cell-based
# T1 construct: endogenous in cells; host or cells: rat vascular smooth muscle cells
# T1 sequence (P42533 29-295): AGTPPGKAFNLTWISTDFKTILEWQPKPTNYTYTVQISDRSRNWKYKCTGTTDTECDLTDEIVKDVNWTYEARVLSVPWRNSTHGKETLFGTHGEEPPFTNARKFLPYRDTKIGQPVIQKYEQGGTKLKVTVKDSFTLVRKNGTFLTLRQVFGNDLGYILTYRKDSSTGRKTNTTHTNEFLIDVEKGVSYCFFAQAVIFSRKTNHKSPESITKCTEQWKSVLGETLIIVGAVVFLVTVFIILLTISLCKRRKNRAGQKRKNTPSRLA
# Procedure: Rat vascular smooth muscle cells were plated into 96-well culture dishes at 4,000 cells per well in growth medium supplemented with 1% fetal calf serum (as in Table 4 without 10% fetal calf serum). […] The cells were incubated with the Factor VII mixtures for 2 hours at 37° C. After incubation, the cells were washed and incubated with 50 μl of 200 nM Factor X in tris buffered saline for 5 minutes at room temperature. Each well had 25 μl of 0.5 M EDTA and 25 μl of […] S-2222 (Kabi Pharmacia) added to it, and the plates were incubated for 40 minutes at room temperature. Chromogenic activity was analyzed at 405 nm in a microplate reader as described above.
# [3] = test system: intimal lesion development in femoral arteries; assay: Morphometry of intima and media after balloon angioplasty in atherosclerotic rabbits; format: in vivo; conditions: rabbit femoral artery, three weeks post-angioplasty; 1 mg/kg bolus + 50 μg/kg/hr for 3 days
# Procedure: DEGR-FVIIa was evaluated for its ability to modulate lesion development following balloon angioplasty in New Zealand White (NZW) atherosclerotic rabbits. This animal model has been well characterized and has proven to be a good model for evaluating anti-thrombotic compounds on vascular lesion development (Gimple et al., Circulation 86:1536-1546 (1992), and Rogosta et al., Circulation 89:1262-1271 (1994)). The animal model used to evaluate DEGR-FVIIa is essentially as described by Ragosta, ibid.
# Anesthesia was induced in rabbits with 5 mg/kg xylazine and 35 mg/kg ketamine by intramuscular injection. The proximal femoral arteries were exposed by cutdown below the inguinal ligament with proximal and distal ligatures. The isolated segments were cannulated with 27 gauge needles. A vent was created by needle puncture. The isolated segments were flushed with saline to clear residual blood, and desiccated by air infused at a rate of 80 ml/min for 8 minutes. Following air-drying, the isolated segments were again flushed with saline and the ligatures removed. Hemostasis was maintained with non-occlusive local pressure. The segments were demarcated with metal clips. Local spasm was treated with Xylocaine 1% locally. The day following surgery, the animals were placed on 1% cholesterol and 6% peanut oil diet for one month until balloon angioplasty. […]
substance,measurement,setting,value
DEGR-Factor VIIa: Recombinant human Factor VIIa with its active site derivatized by Dansyl-L-Glu-Gly-Arg-chloromethyl Ketone (DEGRck),Clotting time,[1]; 0.5 μg/ml plasma,46.2 s
same,Clotting time,[1]; 1.0 μg/ml plasma,50.8 s
same,Clotting time,[1]; 2.5 μg/ml plasma,64.5 s
same,Clotting time,[1]; 5.0 μg/ml plasma,108.1 s
same,Clotting time,[1]; 10.0 μg/ml plasma,158.4 s
same,inhibition of the chromogenic activity,[2]; 1:1 molar ratio of DEGR-Factor VIIa:Factor VIIa,approximately 95%
same,OD405,[2]; DEGR-Factor VIIa 1.56 nM co-incubated with 100 nM Factor VIIa,.116
same,OD405,[2]; DEGR-Factor VIIa 6.25 nM co-incubated with 100 nM Factor VIIa,.073
same,OD405,[2]; DEGR-Factor VIIa 25.00 nM co-incubated with 100 nM Factor VIIa,.026
same,OD405,[2]; DEGR-Factor VIIa 100.00 nM co-incubated with 100 nM Factor VIIa,.014
same,OD405,[2]; DEGR-Factor VIIa .39 nM co-incubated with 100 nM Factor VIIa,.176
same,Intima,[3],0.438 mm2
same,Media,[3],0.329 mm2
